# Measured values reported in patent US20240270762A1, “PENICILLIN-BINDING PROTEIN INHIBITORS” (priority 2021, published 2024).
# Key:
# [1] = system: N. gonorrhoeae WHO Z; test: Liquid broth MIC in Fastidious broth; conditions: Neisseria gonorrhoeae, read-out: Minimum Inhibitory Concentration (MIC), N. gonorrhoeae WHO Z
# [2] = system: P. aeruginosa (ΔmexAB-oprM); test: Broth microdilution MIC in iron-depleted CAMHB (IDM); format: cell-based; conditions: Pseudomonas aeruginosa; iron-depleted CAMHB (IDM); […]; read-out: Minimum inhibitory concentration, P. aeruginosa ΔmexAB-oprM
# [3] = system: N. gonorrhoeae WHO Q; test: Liquid broth MIC in Fastidious broth; conditions: Neisseria gonorrhoeae, read-out: Minimum Inhibitory Concentration (MIC), N. gonorrhoeae WHO Q
# [4] = system: N. gonorrhoeae FA1090; test: Liquid broth MIC in Fastidious broth; conditions: Neisseria gonorrhoeae, FA1090, read-out: Minimum Inhibitory Concentration (MIC), N. gonorrhoeae FA 1090
# [5] = system: P. aeruginosa ATCC 35151; test: microbe, parasite or virus in culture; format: cell-based; conditions: Pseudomonas aeruginosa, ATCC35151, read-out: Minimum inhibitory concentration, P. aeruginosa ATCC 35151
# [6] = system: N. gonorrhoeae WHO M; test: Liquid broth MIC in Fastidious broth; conditions: Neisseria gonorrhoeae, read-out: Minimum Inhibitory Concentration (MIC), N. gonorrhoeae WHO M
# [7] = system: A. baumannii ATCC 19606; test: microbe, parasite or virus in culture; format: cell-based; conditions: Acinetobacter baumannii, ATCC19606, read-out: MIC, A. baumannii ATCC 19606
# [8] = system: N. gonorrhoeae WHO K; test: Liquid broth MIC in Fastidious broth; conditions: Neisseria gonorrhoeae, read-out: Minimum Inhibitory Concentration (MIC), N. gonorrhoeae WHO K
# [9] = system: A. baumannii CDC-0045; test: microbe, parasite or virus in culture; format: cell-based; conditions: Acinetobacter baumannii, CDC0045, read-out: MIC, A. baumannii CDC-0045
# [10] = system: A. baumannii CDC-0036; test: microbe, parasite or virus in culture; format: cell-based; conditions: Acinetobacter baumannii, CDC0036, read-out: MIC, A. baumannii CDC-0036
# [11] = system: A. baumannii 1258916; test: microbe, parasite or virus in culture; format: cell-based, Acinetobacter baumannii; conditions: Acinetobacter baumannii, 1258916, read-out: MIC, A. baumannii 1258916
# [12] = system: N. gonorrhoeae WHO L; test: Liquid broth MIC in Fastidious broth; conditions: Neisseria gonorrhoeae, read-out: Minimum Inhibitory Concentration (MIC), N. gonorrhoeae WHO L
# [13] = system: N. gonorrhoeae MS11; test: Liquid broth MIC in Fastidious broth; conditions: Neisseria gonorrhoeae, MS11, read-out: Minimum Inhibitory Concentration (MIC), N. gonorrhoeae MS11
Compound,MIC [1],MIC [2],MIC [3],MIC [4],MIC [5],MIC [6],MIC [7],MIC [8],MIC [9],MIC [10],MIC [11],MIC [12],MIC [13]
"O=C(NCCCN1CCN(C(=O)NC(C(=O)N[C@H]2Cc3ccc(F)c(C(=O)O)c3OB2O)c2cc(F)c(O)c(O)c2Cl)C(=O)C1=O)c1ccccc1 (stereo partly drawn) [Example 202, (3R)-3-(2-(4-(3-benzamidopropyl)-2,3-dioxopiperazine-1-carboxamido)-2-(2-chloro-5-fluoro-3,4-dihydroxyphenyl)acetamido)-7-fluoro-2-hydroxy-3,4-dihydro-2H-benzo[e][1,2]oxaborinine-8-carboxylic acid]",> 64 µg/mL,< 1 µg/mL,> 64 µg/mL,4 to 8 µg/mL,< 1 µg/mL,16 to 32 µg/mL,< 1 µg/mL,> 64 µg/mL,< 1 µg/mL,2 to 4 µg/mL,< 1 µg/mL,> 64 µg/mL,16 to 32 µg/mL
"O=C(NCCCN1CCN(C(=O)NC(C(=O)N[C@H]2Cc3ccc(F)c(C(=O)O)c3OB2O)c2cc(F)c(O)c(O)c2Cl)C(=O)C1=O)c1ccc(O)cc1 (stereo partly drawn) [Example 203, (3R)-3-(2-(2-chloro-5-fluoro-3,4-dihydroxyphenyl)-2-(4-(3-(4-hydroxybenzamido)propyl)-2,3-dioxopiperazine-1-carboxamido)acetamido)-7-fluoro-2-hydroxy-3,4-dihydro-2H-benzo[e][1,2]oxaborinine-8-carboxylic acid]",16 to 32 µg/mL,< 1 µg/mL,16 to 32 µg/mL,< 1 µg/mL,< 1 µg/mL,4 to 8 µg/mL,< 1 µg/mL,> 64 µg/mL,< 1 µg/mL,< 1 µg/mL,< 1 µg/mL,16 to 32 µg/mL,4 to 8 µg/mL
"O=C(NCCCN1CCN(C(=O)NC(C(=O)N[C@H]2Cc3ccc(F)c(C(=O)O)c3OB2O)c2cc(F)c(O)c(O)c2Cl)C(=O)C1=O)c1cccc(O)c1 (stereo partly drawn) [Example 204, (3R)-3-(2-(2-chloro-5-fluoro-3,4-dihydroxyphenyl)-2-(4-(3-(3-hydroxybenzamido)propyl)-2,3-dioxopiperazine-1-carboxamido)acetamido)-7-fluoro-2-hydroxy-3,4-dihydro-2H-benzo[e][1,2]oxaborinine-8-carboxylic acid]",16 to 32 µg/mL,< 1 µg/mL,> 64 µg/mL,1 to 2 µg/mL,< 1 µg/mL,4 to 8 µg/mL,< 1 µg/mL,> 64 µg/mL,< 1 µg/mL,2 to 4 µg/mL,< 1 µg/mL,> 64 µg/mL,16 to 32 µg/mL
"O=C(NCCCN1CCN(C(=O)NC(C(=O)N[C@H]2Cc3ccc(F)c(C(=O)O)c3OB2O)c2cc(F)c(O)c(O)c2Cl)C(=O)C1=O)c1ccncc1 (stereo partly drawn) [Example 205, (3R)-3-(2-(2-chloro-5-fluoro-3,4-dihydroxyphenyl)-2-(4-(3-(isonicotinamido)propyl)-2,3-dioxopiperazine-1-carboxamido)acetamido)-7-fluoro-2-hydroxy-3,4-dihydro-2H-benzo[e][1,2]oxaborinine-8-carboxylic acid]",16 to 32 µg/mL,< 1 µg/mL,16 to 32 µg/mL,1 to 2 µg/mL,< 1 µg/mL,4 to 8 µg/mL,< 1 µg/mL,> 64 µg/mL,< 1 µg/mL,< 1 µg/mL,< 1 µg/mL,> 64 µg/mL,4 to 8 µg/mL
"O=C(NCCCN1CCN(C(=O)NC(C(=O)N[C@H]2Cc3ccc(F)c(C(=O)O)c3OB2O)c2cc(F)c(O)c(O)c2Cl)C(=O)C1=O)Nc1cccc(O)c1 (stereo partly drawn) [Example 206, (3R)-3-(2-(2-chloro-5-fluoro-3,4-dihydroxyphenyl)-2-(4-(3-(3-(3-hydroxyphenyl)ureido)propyl)-2,3-dioxopiperazine-1-carboxamido)acetamido)-7-fluoro-2-hydroxy-3,4-dihydro-2H-benzo[e][1,2]oxaborinine-8-carboxylic acid]",16 to 32 µg/mL,< 1 µg/mL,16 to 32 µg/mL,1 to 2 µg/mL,< 1 µg/mL,4 to 8 µg/mL,< 1 µg/mL,> 64 µg/mL,< 1 µg/mL,< 1 µg/mL,< 1 µg/mL,> 64 µg/mL,16 to 32 µg/mL
"O=C(NCCN1CCN(C(=O)NC(C(=O)N[C@H]2Cc3ccc(F)c(C(=O)O)c3OB2O)c2cc(F)c(O)c(O)c2Cl)C(=O)C1=O)c1ccccc1 (stereo partly drawn) [Example 207, (3R)-3-(2-(4-(2-benzamidoethyl)-2,3-dioxopiperazine-1-carboxamido)-2-(2-chloro-5-fluoro-3,4-dihydroxyphenyl)acetamido)-7-fluoro-2-hydroxy-3,4-dihydro-2H-benzo[e][1,2]oxaborinine-8-carboxylic acid]",16 to 32 µg/mL,< 1 µg/mL,16 to 32 µg/mL,4 to 8 µg/mL,< 1 µg/mL,16 to 32 µg/mL,2 to 4 µg/mL,> 64 µg/mL,2 to 4 µg/mL,8 to 16 µg/mL,2 to 4 µg/mL,> 64 µg/mL,16 to 32 µg/mL
"CN(CCN1CCN(C(=O)N[C@@H](C(=O)N[C@H]2Cc3ccc(F)c(C(=O)O)c3OB2O)c2cc(F)c(O)c(O)c2Cl)C(=O)C1=O)Cc1cncc(O)c1 [Example 208, (R)-3-((R)-2-(2-chloro-5-fluoro-3,4-dihydroxyphenyl)-2-(4-(2-(((5-hydroxypyridin-3-yl)methyl)(methyl)amino)ethyl)-2,3-dioxopiperazine-1-carboxamido)acetamido)-7-fluoro-2-hydroxy-3,4-dihydro-2H-benzo[e][1,2]oxaborinine-8-carboxylic acid]",16 to 32 µg/mL,< 1 µg/mL,16 to 32 µg/mL,1 to 2 µg/mL,< 1 µg/mL,4 to 8 µg/mL,< 1 µg/mL,16 to 32 µg/mL,< 1 µg/mL,2 to 4 µg/mL,< 1 µg/mL,> 64 µg/mL,4 to 8 µg/mL
"CN(CCN1CCN(C(=O)N[C@@H](C(=O)N[C@H]2Cc3ccc(F)c(C(=O)O)c3OB2O)c2cc(F)c(O)c(O)c2Cl)C(=O)C1=O)Cc1ccc(N)nc1 [Example 209, (R)-3-((R)-2-(4-(2-(((6-aminopyridin-3-yl)methyl)(methyl)amino)ethyl)-2,3-dioxopiperazine-1-carboxamido)-2-(2-chloro-5-fluoro-3,4-dihydroxyphenyl)acetamido)-7-fluoro-2-hydroxy-3,4-dihydro-2H-benzo[e][1,2]oxaborinine-8-carboxylic acid]",16 to 32 µg/mL,< 1 µg/mL,16 to 32 µg/mL,1 to 2 µg/mL,< 1 µg/mL,4 to 8 µg/mL,< 1 µg/mL,> 64 µg/mL,< 1 µg/mL,2 to 4 µg/mL,< 1 µg/mL,> 64 µg/mL,4 to 8 µg/mL
"O=C(NCCCN1CCN(C(=O)N[C@@H](C(=O)N[C@H]2Cc3ccc(F)c(C(=O)O)c3OB2O)c2cc(F)c(O)c(O)c2Cl)C(=O)C1=O)c1cccnc1 [Example 210, (R)-3-((R)-2-(2-chloro-5-fluoro-3,4-dihydroxyphenyl)-2-(4-(3-(nicotinamido)propyl)-2,3-dioxopiperazine-1-carboxamido)acetamido)-7-fluoro-2-hydroxy-3,4-dihydro-2H-benzo[e][1,2]oxaborinine-8-carboxylic acid]",16 to 32 µg/mL,< 1 µg/mL,> 64 µg/mL,< 1 µg/mL,< 1 µg/mL,16 to 32 µg/mL,< 1 µg/mL,> 64 µg/mL,< 1 µg/mL,2 to 4 µg/mL,< 1 µg/mL,> 64 µg/mL,16 to 32 µg/mL
"O=C(NCCCN1CCN(C(=O)NC(C(=O)N[C@H]2Cc3ccc(F)c(C(=O)O)c3OB2O)c2cc(F)c(O)c(O)c2Cl)C(=O)C1=O)c1nccs1 (stereo partly drawn) [Example 211, (3R)-3-(2-(2-chloro-5-fluoro-3,4-dihydroxyphenyl)-2-(2,3-dioxo-4-(3-(thiazole-2-carboxamido)propyl)piperazine-1-carboxamido)acetamido)-7-fluoro-2-hydroxy-3,4-dihydro-2H-benzo[e][1,2]oxaborinine-8-carboxylic acid]",16 to 32 µg/mL,< 1 µg/mL,> 64 µg/mL,1 to 2 µg/mL,< 1 µg/mL,16 to 32 µg/mL,< 1 µg/mL,> 64 µg/mL,< 1 µg/mL,2 to 4 µg/mL,< 1 µg/mL,> 64 µg/mL,16 to 32 µg/mL
